Results on one molecule are retold here after publication doi:10.1101/454710v1 (biorxiv, 2018).

pEC50: −log10 of the molar value.

A word on the pEC50: it is the negative decadic logarithm of the EC50, by convention in mol/L.

Holding throughout (experiment): whole-cell patch clamp
Common to all, as to type: cell-based
Conditions in all cases: agonist; pH 7.4
(In general: The patch-clamp technique gives a direct electrical read-out from membranes.)

The test system of test [1] is homomeric α2 GlyR.
Test [2] relates to heteromeric α3β GlyR.
The subject of test [3] is heteromeric α2β GlyR.
In test [4] the test system is homomeric α3 GlyR.

As to `NCC(=O)O` [glycine], the pEC50 in test [1] is 4.00; in test [2], 3.40; in test [3], 4.04; in test [4], 3.78.
